Test results from patent US8158559B2, “Herbicidal combination comprising dimethoxytriazinyl-substituted difluoromethanesulfonylanilides” (Bayer Cropscience AG, priority 2008, dated 2012).
Where two headings read alike, the source gives them in different places.

Columns and labels:
Test in all cases: Post-emergence action against weeds, greenhouse pot test, visual scoring
Type in all cases: in vivo
Zea mays (ZEAMX) = settings: read-out: % activity found; for inhibition at 4 g/ha: dosage 4 g of ai/ha
Procedure: (§1) Seeds or rhizome pieces of mono- and dicotyledonous harmful and useful plants were placed in peat pots (diameter 4 cm) filled with sandy loam and then covered with soil. The pots were kept in a greenhouse under optimum conditions. In addition, harmful plants encountered in paddy rice cultivation were cultivated in pots with a water level 2 cm above the soil surface.
(§2) About three weeks after the start of the cultivation, the test plants were treated at the 2- to 3-leaf stage. The herbicides, formulated as powder or liquid concentrates, were, either alone or in the combinations according to the invention, sprayed in various dosages on to the green parts of the plants using an application rate of 600 l of water/ha (converted). For further cultivation of the plants, the pots were then again kept under optimum conditions in a greenhouse.
(§3) The visual scoring of the herbicidal effects was carried out in intervals up to 21 days after the treatment. Scoring was carried out in percent in comparison to the untreated control plants. 0%=no herbicidal activity, 100%=complete herbicidal activity=complete kill.
(§4) The percentages from the treatments with the herbicides alone (=individual application) and with the combinations according to the invention (=mixtures) were employed to calculate interactions using the method of Colby. When the observed efficacies of the mixtures exceed the formal sum of the values of the tests with individual applications, they also exceed the expected value according to Colby, which is calculated using the formula below (cf. S. R. Colby; in Weeds 15 (1967) pp. 20 to 22): E=A+B−(A×B/100)
(§5) Here: • A, B=activity of components A and B in percent at a dosage of a and b g of ai/ha (=gramm of active substance per hectare), respectively. • E=expected value in % at a dosage of a+b g of ai/ha. Results
(§6) The combinations according to the invention of herbicides from group (A) with herbicides from group (B) were tested on a broad spectrum of important harmful plants (weed grasses, broad-leaved weeds/Cyperaceae) and useful plants: Triticum aestivum (TRZAS), Stellaria media (STEME), Lolium multiflorum (LOLMU), Veronica persica (VERPE), Alopecurus myosuroides (ALOMY), Matricaria inodora (MATIN), Brassica napus (BRSNW), Viola tricolor (VIOTR), Avena fatua (AVEFA), Amaranthus retroflexus (AMARE), Zea mays (ZEAMX), Pharbitis purpurea (PHBPU), Setaria viridis (SETVI), Fallopia (ex Polygonum) convolvulus (POLCO), Echinochloa crus-galli (ECHCG), Abuthilon theophrasti (ABUTH), Cyperus esculentus (CYPES), Oryza sativa (ORYSA).
(§7) Of particular interest are the results shown in the tables (Tab.) below, where the following key is used: • (1) EPPO code (former Bayer code) for the treated plant (see above) • (2) Time of scoring: DAT (days after treatment) • (3) Component A tested (identifying number) • (4) Component B tested (identifying number) • (5) Dosage component A [g of ai/ha] • (6) Dosage component B [g of ai/ha] • (7) % activity found • (8) E value (calculated according to Colby; see above) • (9) Comments: “SYNERGY”=synergistic interaction (E value<% activity found); “SAFENING”=safener action on useful plant (E value>% activity found)

Oryza sativa (ORYSA) = settings: read-out: % activity found; for inhibition at 4 g/ha: dosage 4 g of ai/ha; for inhibition at 12 g/ha: dosage 12 g of ai/ha
Procedure: as §1, §2, §3, §4, §5, §6, §7

[1] = system: Lolium multiflorum (LOLMU); settings: read-out: % activity found; for inhibition at 4 g/ha: dosage 4 g of ai/ha
Procedure: as §1, §2, §3, §4, §5, §6, §7

[2] = system: Triticum aestivum (TRZAS); settings: read-out: % activity found; for inhibition at 12 g/ha: dosage 12 g of ai/ha
Procedure: as §1, §2, §3, §4, §5, §6, §7

[3] = system: Cyperus esculentus (CYPES); settings: 504 h, read-out: % activity found
Procedure: as §1, §2, §3, §4, §5, §6, §7

Viola tricolor (VIOTR) = settings: 240 h, read-out: % activity found
Procedure: as §1, §2, §3, §4, §5, §6, §7

Avena fatua (AVEFA) = settings: 504 h, read-out: % activity found
Procedure: as §1, §2, §3, §4, §5, §6, §7

[4] = system: Matricaria inodora (MATIN); settings: Tripleurospermum inodorum, 504 h, read-out: % activity found
Procedure: as §1, §2, §3, §4, §5, §6, §7

[5] = 240 h, 10 DAT, dosage 12 g of ai/ha
[6] = 504 h, 21 DAT, dosage 12 g of ai/ha

Which results are given for `COc1cc(OC)nc(Oc2cccc(Oc3nc(OC)cc(OC)n3)c2C(=O)O)n1` [B2-1, sodium 2,6-bis[(4,6-dimethoxy-2-pyrimidinyl)oxy]benzoate, reference compound]?
inhibition at 12 g/ha (Zea mays (ZEAMX); 240 h): 40%; inhibition at 36 g/ha (Zea mays (ZEAMX); 240 h): 40%; inhibition at 12 g/ha (Zea mays (ZEAMX); 504 h): 0%; inhibition at 36 g/ha (Zea mays (ZEAMX); 504 h): 0%; inhibition at 36 g/ha (Oryza sativa (ORYSA); 504 h): 70%; inhibition at 12 g/ha ([1]; 240 h): 40%; inhibition at 12 g/ha ([1]; 504 h): 20%; inhibition at 36 g/ha ([1]; 504 h): 70%

`CCOC(=O)COc1ncccc1Oc1cc(-n2c(=O)cc(C(F)(F)F)n(C)c2=O)c(F)cc1Cl` [B4-6, ethyl [[3-[2-chloro-5-[3,6-dihydro-3-methyl-2,6-dioxo-4-(trifluoromethyl)-1(2H)-pyrimidinyl]-4-fluorophenoxy]-2-pyridinyl]oxy]acetate, reference compound] was tested. Which inhibition at 9 g/ha ([2]; 240 h) did it give?
Its inhibition at 9 g/ha is 50%.

And the inhibition at 3 g/ha ([2]; 504 h)?
Its inhibition at 3 g/ha is 30%.

And the inhibition at 3 g/ha (Zea mays (ZEAMX); 240 h)?
Its inhibition at 3 g/ha is 40%.

And the inhibition at 3 g/ha (Zea mays (ZEAMX); 504 h)?
Its inhibition at 3 g/ha is 30%.

And the inhibition at 9 g/ha [3]?
Its inhibition at 9 g/ha is 20%.

What about the inhibition at 3 g/ha (Oryza sativa (ORYSA); 240 h) of the same compound?
Its inhibition at 3 g/ha is 40%.

And the inhibition at 9 g/ha (Oryza sativa (ORYSA); 240 h)?
Its inhibition at 9 g/ha is 40%.

And the inhibition at 3 g/ha (Viola tricolor (VIOTR))?
The inhibition at 3 g/ha was 10%.

And the inhibition at 9 g/ha (Viola tricolor (VIOTR))?
The inhibition at 9 g/ha was 85%.

What about the inhibition at 3 g/ha (Avena fatua (AVEFA)) of the same compound?
The inhibition at 3 g/ha was 0%.

And the inhibition at 9 g/ha [4]?
The inhibition at 9 g/ha was 80%.

How did the inhibition at 4 g/ha ([2]; 240 h, 10 DAT, dosage 4 g of ai/ha) turn out when `COc1nc(OC)nc(C(=O)c2cccc(F)c2N(C)S(=O)(=O)C(F)F)n1` [A-1] was run?
The inhibition at 4 g/ha was 0%.

What about the inhibition at 12 g/ha ([2]; 240 h, 10 DAT) of the same compound?
Its inhibition at 12 g/ha is 0%.

What about the inhibition at 12 g/ha ([2]; 504 h, 21 DAT) of the same compound?
Its inhibition at 12 g/ha is 0%.

And the inhibition at 4 g/ha (Zea mays (ZEAMX); 240 h, 10 DAT)?
Its inhibition at 4 g/ha is 0%.

What about the inhibition at 12 g/ha (Zea mays (ZEAMX); [5]) of the same compound?
The inhibition at 12 g/ha was 0%.

What about the inhibition at 4 g/ha (Zea mays (ZEAMX); 504 h, 21 DAT) of the same compound?
The inhibition at 4 g/ha was 0%.

What about the inhibition at 12 g/ha (Zea mays (ZEAMX); [6]) of the same compound?
The inhibition at 12 g/ha was 0%.

What about the inhibition at 4 g/ha ([3]; 21 DAT, dosage 4 g of ai/ha) of the same compound?
The inhibition at 4 g/ha was 80%.

And the inhibition at 4 g/ha (Oryza sativa (ORYSA); 240 h, 10 DAT)?
Its inhibition at 4 g/ha is 10%.

And the inhibition at 12 g/ha (Oryza sativa (ORYSA); 240 h, 10 DAT)?
The inhibition at 12 g/ha was 10%.

What about the inhibition at 4 g/ha (Oryza sativa (ORYSA); 504 h, 21 DAT) of the same compound?
The inhibition at 4 g/ha was 0%.

What about the inhibition at 12 g/ha (Oryza sativa (ORYSA); 504 h, 21 DAT) of the same compound?
Its inhibition at 12 g/ha is 10%.

What about the inhibition at 4 g/ha (Viola tricolor (VIOTR); 10 DAT, dosage 4 g of ai/ha) of the same compound?
Its inhibition at 4 g/ha is 20%.

And the inhibition at 12 g/ha (Viola tricolor (VIOTR); 10 DAT, dosage 12 g of ai/ha)?
Its inhibition at 12 g/ha is 20%.

And the inhibition at 4 g/ha (Avena fatua (AVEFA); 21 DAT, dosage 4 g of ai/ha)?
The inhibition at 4 g/ha was 10%.

And the inhibition at 12 g/ha (Avena fatua (AVEFA); 21 DAT, dosage 12 g of ai/ha)?
The inhibition at 12 g/ha was 30%.

And the inhibition at 4 g/ha ([4]; 21 DAT, dosage 4 g of ai/ha)?
Its inhibition at 4 g/ha is 50%.

And the inhibition at 4 g/ha ([1]; 240 h, 10 DAT)?
Its inhibition at 4 g/ha is 0%.

And the inhibition at 12 g/ha [1, 5]?
Its inhibition at 12 g/ha is 10%.

What about the inhibition at 4 g/ha ([1]; 504 h, 21 DAT) of the same compound?
The inhibition at 4 g/ha was 0%.

What about the inhibition at 12 g/ha [1, 6] of the same compound?
Its inhibition at 12 g/ha is 10%.
